# Measurements from ChEMBL document CHEMBL4689842, “EUbOPEN Chemogenomics Library wave 1” (2021).
# System: U2OS
# Assay: Incucyte cell viability with U2OS; also: filed as whole numbers so only -1 and 0 and 1 occur
# Type: toxicity, cell-based
# Details: human, 10 µM, compound concentration 10 uM
# [1] = 0 h, replicate number 2, timepoint 0 hours
# [2] = 6 h, replicate number 1, timepoint 6 hours
# [3] = 12 h, replicate number 1, timepoint 12 hours
# [4] = 18 h, replicate number 1, timepoint 18 hours
# [5] = 24 h, replicate number 1, timepoint 24 hours
# [6] = 0 h, replicate number 1, timepoint 0 hours
# [7] = 6 h, replicate number 2, timepoint 6 hours
# [8] = 18 h, replicate number 2, timepoint 18 hours
# [9] = 24 h, replicate number 2, timepoint 24 hours
# [10] = 12 h, replicate number 2, timepoint 12 hours
Compound,Growth Rate [1],Growth Rate [2],Growth Rate [3],Growth Rate [4],Growth Rate [5],Growth Rate [6],Growth Rate [7],Growth Rate [8],Growth Rate [9],Growth Rate [10]
Cc1cc(C)cc(-c2cnc3cc(Cl)c(-c4cccc(O)c4)cc3c2OCCCN)c1,0,0,0,0,0,–,–,–,–,–
Cc1sc2c(c1C)C(c1ccc(Cl)cc1)=N[C@@H](CC(=O)OC(C)(C)C)c1nnc(C)n1-2,–,0,1,0,0,0,1,1,1,–
COc1cc(-n2cnc3cc(-c4ccc(Cl)cc4)sc3c2=O)ccc1OCCN1CCCC1,–,0,0,0,0,0,–,–,–,–
Cc1csc2c(N[C@@H](C)CN3CCN(S(=O)(=O)c4ccc(Cl)c(Cl)c4)CC3)ncnc12,–,–,1,0,0,0,1,–,–,0
Cc1[nH]c(/C=C2\C(=O)Nc3ccc(S(=O)(=O)N(C)c4cccc(Cl)c4)cc32)c(C)c1C(=O)N1CCN(C)CC1,0,–,0,0,0,–,–,–,–,1
CNc1nc(NCc2ccc(NS(C)(=O)=O)cc2Cl)cc(-c2ccccn2)n1,–,0,0,0,0,0,–,–,–,–
CC(C)(O)CNc1ncc(-c2ccnc(Nc3ccnc(Cl)c3)n2)c(CC2CC2)n1,–,1,0,0,0,0,–,1,1,–
Cn1cc(-c2[nH]c3cc(NC(=O)[C@H](N)C4CCCCC4)cc4c3c2C=NNC4=O)cn1,–,0,0,0,0,0,1,–,–,1
C=CC(=O)Nc1cccc(C(=O)Nc2ccc(Nc3cc(-c4[nH]c(SC)nc4C)ccn3)cc2)c1,1,0,0,0,0,0,–,–,–,–
OC1(c2ccc(Cl)cc2)CCN(Cc2c[nH]c3ccccc23)CC1,–,–,0,0,0,–,0,–,–,–
CC(C)C(=O)Nc1n[nH]c2cc(-c3cccc(NS(=O)(=O)C4CC4)c3)ccc12,–,0,0,0,0,0,–,–,–,–
CN1C(=O)c2sccc2N(C)c2nc(Nc3ccc(S(N)(=O)=O)cc3)ncc21,0,0,0,0,0,–,–,–,–,–
CN(C)C(=O)/C(C#N)=C/c1ccc(-c2nc3cnc4[nH]ccc4c3n2C2CCCCC2)o1,–,0,0,0,0,0,1,1,1,1
C=CC(=O)Nc1ccc2ncnc(Nc3ccc(OCc4cccc(F)c4)c(Cl)c3)c2c1.Cc1ccc(S(=O)(=O)O)cc1,1,–,1,0,0,–,0,–,–,–
COc1cc2nccc(Oc3ccc(NC(=O)Nc4cc(C)on4)c(Cl)c3)c2cc1OC.O,0,0,0,0,0,1,–,–,–,–
Cn1cncc1[C@@](O)(COc1ccc(C#N)cc1-c1ccc(OC(F)(F)F)cc1)c1ccc(C#N)cc1 [A-108],–,0,1,0,0,0,–,–,–,–
CN(C)CC#Cc1ccc(OCCCc2sc(N3CCc4cccc(C(=O)Nc5nc6ccccc6s5)c4C3)nc2C(=O)O)c(F)c1 [A-1155463],–,0,0,0,0,0,–,–,–,1

Compound,Growth Rate [1],Growth Rate [2],Growth Rate [3],Growth Rate [4],Growth Rate [5],Growth Rate [6],Growth Rate [7],Growth Rate [8],Growth Rate [9],Growth Rate [10]
NC(=O)Nc1cc(-c2cccc(F)c2)sc1C(=O)N[C@H]1CCCNC1 [AZD-7762],–,0,0,0,0,0,–,–,–,–
CN1CCCC(n2nc(Cc3ccc(Cl)cc3)c3ccccc3c2=O)CC1.Cl (stereo not drawn) [AZELASTINE HYDROCHLORIDE],–,–,–,1,1,0,0,–,–,1
Cn1c(-c2csc(C3CCN(CC4=NC5N=CC=CC5N4)CC3)n2)nc2ccccc21 (stereo not drawn) [BAY-070],–,0,1,0,1,0,–,1,0,–
CNCc1ccccc1-c1csc([C@H](C)Nc2nc(C)nc3cc(OC)c(OC)cc23)c1 [BAY-294],–,0,0,0,0,0,–,–,–,–
CN(C)c1ncnc(-c2ccc3nc(Nc4cc(CN5CCN(C(=O)CC(F)(F)F)CC5)ccn4)[nH]c3c2)c1Cl [BAY-440],0,0,0,0,0,–,1,1,1,1
COc1ccc(Oc2cc(NCCC(F)(F)F)c3ncc(-c4ccc(C(=O)NC5CC5)c(C)c4)n3n2)c(F)c1F [BAY-1217389],–,0,0,0,0,0,–,1,–,1
Cc1c(-c2ccc(O)cc2)n(Cc2ccc(OCCN3CCCCCC3)cc2)c2ccc(O)cc12 [BAZEDOXIFENE],0,–,1,0,0,–,–,1,–,–
CC(C)NCC(O)COc1ccc(CCOCC2CC2)cc1.Cl (stereo not drawn) [BETAXOLOL HYDROCHLORIDE],–,–,–,1,1,0,–,–,–,–
C[C@@]1(C(=O)Nc2ccc(F)nc2)CCCN1c1nc(Nc2cc(C3CC3)n[nH]2)c2cccn2n1 [BMS-754807],–,0,0,0,0,0,–,–,–,–
C=CC(=O)Nc1cc2c(Nc3ccc(F)c(Cl)c3)ncnc2cc1OCCCN1CCOCC1.Cl.Cl [CANERTINIB DIHYDROCHLORIDE],–,0,0,0,0,–,–,–,–,–
CN(C)C(=O)N[C@H]1CC[C@H](CCN2CCN(c3cccc(Cl)c3Cl)CC2)CC1.Cl [CARIPRAZINE HYDROCHLORIDE],–,0,1,1,1,1,–,–,–,–
C[C@@H](NCCCc1cccc(C(F)(F)F)c1)c1cccc2ccccc12.Cl [CINACALCET HYDROCHLORIDE],–,–,1,0,0,–,0,–,–,0
CN1CCC[C@@H]1CCO[C@](C)(c1ccccc1)c1ccc(Cl)cc1.O=C(O)/C=C/C(=O)O [CLEMASTINE FUMARATE],–,–,0,0,0,–,0,–,–,–
c1cn2cc(-c3ccc4cn[nH]c4c3)nc(Nc3ccc(N4CCOCC4)cc3)c2n1 [ENTOSPLETINIB],1,–,1,1,0,–,1,0,–,–
Cn1cc(C2=C(c3cn(C4CCN(Cc5ccccn5)CC4)c4ccccc34)C(=O)NC2=O)c2ccccc21 [ENZASTAURIN],–,0,0,0,0,0,–,–,–,–
CC[C@H](C)C(=O)O[C@H]1C[C@@H](C)C=C2C=C[C@H](C)[C@H](CC[C@@H]3C[C@@H](O)CC(=O)O3)[C@H]21 [LOVASTATIN],–,0,0,0,0,–,–,–,–,–
COc1ncc(-c2ccc3nccc(-c4ccnnc4)c3c2)cc1NS(=O)(=O)c1ccc(F)cc1F [OMIPALISIB],–,1,1,0,0,1,–,–,–,–
